Laboratory results: publication PMC2267209, “Transepithelial Transport and Enzymatic Detoxification of Gluten in Gluten-Sensitive Rhesus Macaques” (PLoS ONE, 2008)

Tests used:
[1] = test system: celiac patient-derived T cells; conditions: ref [2], [19], cited from earlier work
[2] = rhesus monkey, in vivo
Experimental: A 0.5 ml sample of EDTA-blood was collected from an ear vein at 0, 30, 60, 120, and 180 min following the 33-mer inoculation. […] Animals were fasted at least 2 h prior to peptide inoculations. Blood collections and 33-mer inoculations were performed with sedated and anesthetized animals.
Following peptide dosing and peripheral plasma collection, described above, plasma proteins were precipitated by addition of acetonitrile. Plasma was mixed with an equal volume of cold acetonitrile+0.1% formic acid, vortexed, incubated for 2 h at 4°C, and centrifuged at 14,000•g for 10 min at 4°C. […] When quantitation was performed, unlabeled 33-mer was spiked into the plasma samples prior to acetonitrile precipitation as an internal control (5 pmol/100 µl injection) and injections were performed at least in triplicate.
Mass spectrometry analysis was performed as previously described [20] with the following modifications. […] For ^D933-mer, the transitions monitored were m/z 981.0^4+→263.1^+ (30V cone voltage, 27eV collision energy.) for the quantitation assay and m/z 1307.7^3+→263.1^+ (40V cone voltage, 50eV collision energy) as a confirmatory transition. […] Levels of ^D933-mer in each sample were determined by comparison of the area under the ^D933-mer transition peak to the area under the internal standard transition peak. […]

[3] = test system: gluten-sensitive rhesus macaque FH45; assay: Daily gluten challenge with or without oral EP-B2, clinical score; assay type: in vivo, rhesus macaques (Macaca mulatta)
From the text: Gluten-sensitive FH45 and control FI96 were switched from a gluten-containing to a gluten-free diet at week 0, re-challenged with the gluten-containing diet from week 10.4 to 11.4, and then returned to a gluten-free diet for the remainder of the experiment. To test whether orally administered EP-B2 can prevent clinical symptoms resulting from gluten challenge, animals were fed a gluten-free diet with the addition of a daily slice of unbleached wheat bread (∼4 g gluten) for 8 weeks (weeks 22.9 to 30.9), during the first 4 of which (weeks 22.9 to 26.9) gluten-sensitive macaque FH45 received a daily dose of 2 g recombinant proEP-B2 dissolved in an electrolyte drink immediately prior to bread consumption. Recombinant proEP-B2 was expressed and purified as previously described, [31]. Peripheral blood samples (1 ml) were collected every 1–2 weeks from a femoral vein, and plasma was harvested and stored at −80 °C until analyzed for AGA and anti-TG2 antibodies. Clinical health was monitored as previously described. Briefly, daily clinical scores were averaged over weekly intervals to obtain each weekly mean±standard deviation. Criteria for clinical scoring (1–6 scale) were scaled relative to “clinically normal”, age-matched controls, i.e. score of 1. Score 2 corresponded to beginning of diarrhea, i.e. pasty stools. Score 3 corresponded to semi-liquid stools and decreased activity. […]

[4] = test system: gluten-sensitive rhesus macaque FH45; assay: Indirect ELISA for plasma AGA and anti-TG2 antibodies during gluten challenge with EP-B2; assay type: in vivo, rhesus macaques (Macaca mulatta)
From the text: Gluten-sensitive FH45 and control FI96 were switched from a gluten-containing to a gluten-free diet at week 0, re-challenged with the gluten-containing diet from week 10.4 to 11.4, and then returned to a gluten-free diet for the remainder of the experiment. To test whether orally administered EP-B2 can prevent clinical symptoms resulting from gluten challenge, animals were fed a gluten-free diet with the addition of a daily slice of unbleached wheat bread (∼4 g gluten) for 8 weeks (weeks 22.9 to 30.9), during the first 4 of which (weeks 22.9 to 26.9) gluten-sensitive macaque FH45 received a daily dose of 2 g recombinant proEP-B2 dissolved in an electrolyte drink immediately prior to bread consumption. Recombinant proEP-B2 was expressed and purified as previously described, [31]. Peripheral blood samples (1 ml) were collected every 1–2 weeks from a femoral vein, and plasma was harvested and stored at −80 °C until analyzed for AGA and anti-TG2 antibodies. Clinical health was monitored as previously described. Briefly, daily clinical scores were averaged over weekly intervals to obtain each weekly mean±standard deviation. Criteria for clinical scoring (1–6 scale) were scaled relative to “clinically normal”, age-matched controls, i.e. score of 1. Score 2 corresponded to beginning of diarrhea, i.e. pasty stools. Score 3 corresponded to semi-liquid stools and decreased activity. Score 4 corresponded to liquid stools, decreased activity, moderate dehydration and “balloon” stomach. Score 5 corresponded to liquid stools, depression, severe dehydration and balloon stomach. Score 6 corresponded to a moribund animal where prompt euthanasia is recommended.
ELISA assays were performed as previously described.

[5] = daily 2 g proEP-B2 plus wheat bread

LQLQPFPQPQLPYPQPQLPYPQPQLPYPQPQPF [33-mer, immunotoxic 33-mer gluten peptide derived from gastrointestinal proteolysis of α2-gliadin; unlabeled form used as internal standard]
Concentration sufficient to stimulate proliferation of celiac patient-derived T cells ([1]; T cells in culture): low nanomolar concentrations
Proliferation of celiac patient-derived T cell lines ([1]; all T cell lines tested so far): activates proliferation in all celiac patient-derived T cell lines tested so far

LQLQPFPQPQLPYPQPQLPYPQPQLPYPQPQPF [^D933-mer]
Detection of peptide in peripheral plasma at 60 minutes [2]: detected
Concentration in peripheral plasma at 60 minutes ([2]; SD): 7.0 ± 0.4 nM

EP-B2: gluten-specific barley cysteine endoprotease, dosed orally as recombinant proenzyme; oral glutenase drug candidate for celiac disease
Clinical health during gluten challenge with EP-B2 ([3]; daily 2 g recombinant proEP-B2 oral immediately before a daily slice of wheat bread (∼4 g gluten), first 4 weeks (weeks 22.9 to 26.9), clinical score 1–6 scale): remained clinically healthy
Time to signs of clinical illness after EP-B2 dosing was concluded ([3]; wheat bread gluten challenge continued without EP-B2 (weeks 26.9 to 30.9)): ~1 week
Anti-TG2 IgA ([4]; EP-B2 treatment with gluten challenge): unable to detect
AGA levels during wheat bread/EP-B2 administration relative to gluten-containing diet (week 0) [4, 5]: ~3 fold
Anti-TG2 IgG levels over the course of EP-B2 treatment [4, 5]: elevated
